The values below come from publication PMC8365601, “Terphenyl-Based Small-Molecule Inhibitors of Programmed Cell Death-1/Programmed Death-Ligand 1 Protein–Protein Interaction” (Journal of Medicinal Chemistry, 2021).

The target in data set [1] is T1, PD-1/PD-L1 interaction (Homo sapiens, UniProt Q9NZQ7).
T1 construct: host or cells: CHO-K1 (CHO/TCRAct/PD-L1) and Jurkat effector cells
As to the kind of experiment: PD-1/PD-L1 ICB assay (Jurkat-ECs with CHO/TCRAct/PD-L1 cells, luciferase). It counts as cell-based. The method, then:
After a successful optimization of the terphenyl compounds, the activity of the optimized molecules 7a and 8a–j in a cellular context was assessed. To this end, we first performed the PD-1/PD-L1 ICB assay. In this assay, T-cell receptor (TCR)-mediated activation of Jurkat effector cells (Jurkat-ECs) is reduced by the presence of PD-L1, exposed at the surface of CHO/TCRAct/PD-L1 cells (Figure 3A).
(§1) The functional assay of the blockade of PD-1/PD-L1 interaction in vitro (PD-1/PD-L1 Blockade Bioassay, Promega) was performed according to the manufacturer’s protocol. CHO/TCRAct/PD-L1 cells or CHO/TCRAct or CHO-K1 cells were seeded on 96-well white plates at the density of 10,000 cells/well and the next day overlaid with Jurkat T cells (20,000 cells/well) in the presence of increasing concentrations of the compounds with DMSO only as a control (the concentration of DMSO was kept constant at 0.1%) or atezolizumab, as a positive control, anti-PD-L1 monoclonal antibody (Selleckchem). The 2.5-fold dilutions of atezolizumab were prepared in the assay buffer (RPMI 1640 + 1% FBS) on the day of the assay. Activation of the Jurkat T cells, reflected by luciferase activity, was monitored by luminescence measurements after 6 h of incubation (37 °C, 5% CO2), and 20 min of additional incubation with the Bio-Glo assay reagent (Promega) at room temperature. The luminescence was read on a Spark microplate reader (Tecan). The data are presented as fold induction of the luminescence signal relative to either untreated (for atezolizumab) or DMSO-treated (for compound) cells. Data points represent mean ± SD values from three to five independent experiments. Half-maximal effective concentrations (EC50 values) were calculated from the Hill curve fitting to the experimental data using Origin Pro 2020 software (OriginLab).

The subject of data set [2] is primary CD4+ and CD8+ T cells (PBMCs). Description: T-cell activation (TCA) assay, PBMCs with CHO/TCRAct/PD-L1 cells, flow cytometry. The data set is classed as cell-based, human. The note with it: 48 h; compounds 0.1, 0.5, 2.5 μM; mAbs 5 μg/mL.
Data set [3] deals with Jurkat-ECs alone or with CHO wt or CHO/TCRAct cells. As to the kind of experiment: ICB assay control where PD-L1 is absent. The data set is classed as cell-based. Particulars: 6 h; Figure S1. How it is done:
as §1, with “(OriginLab). […]” for “(OriginLab).”
of the Immune Checkpoint Blockade (ICB) assay, where 8h, 8i, and 8j were used to restore the activation of effector Jurkat-ECs. Jurkat-ECs were either kept alone, or contacted with one of the following cell lines: wild type CHO K1 cells (CHO wt), CHO K1 cells expressing TCR Activator (CHO/TCRAct), or CHO K1 cells expressing TCR Activator and […]. The cells were incubated with the indicated concentrations of the compounds for 6 hours and luminescence was measured as an indicator of TCR-dependent activation of Jurkat-ECs. The graphs present fold induction of the luminescence signal relative to DMSO-treated cells. […]

Like-named read-outs stand apart in the source and are kept apart here.

T1 sequence (Q9NZQ7 19-290): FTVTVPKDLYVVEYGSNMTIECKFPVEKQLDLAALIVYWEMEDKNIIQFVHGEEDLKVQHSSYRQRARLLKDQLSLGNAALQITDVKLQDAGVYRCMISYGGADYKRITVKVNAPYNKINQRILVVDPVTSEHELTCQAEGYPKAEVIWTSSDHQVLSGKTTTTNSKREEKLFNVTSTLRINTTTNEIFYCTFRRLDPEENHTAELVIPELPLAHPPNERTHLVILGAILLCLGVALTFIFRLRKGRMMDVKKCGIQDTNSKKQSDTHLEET

In the case of `COc1cc(-c2cccc(-c3ccc4c(c3)OCCO4)c2Cl)ccc1CNC(CO)(CO)CO` [8j, 2-(((3′-(Benzo-1,4-dioxan-6-yl)-2′-chloro-3-methoxy-[1,1′-biphenyl]-4-yl)methyl)amino)-2-(hydroxymethyl)propane-1,3-diol], in data set [1] (EC50 (tox.) vs EC50 (bio.), Figure 3F), the “selectivity of PD-1/PD-L1-blocking activity versus cytotoxicity” value was “highest selectivity”. For the same compound, the EC50 in data set [1] (Jurkat-ECs with CHO/TCRAct/PD-L1, 6 h, SI csv, read-out: Bioactivity (EC50 in the ICB assay)) turned out to be 1.03 ± 0.15 µM. For the same compound, the concentration giving a half-maximal response (EC50) in data set [1] (read-out: EC50 in cell-based assays) is roughly 1 µM. In data set [2], the “numbers of PD-1-positive T cells” value is listed as “significant increase”; the “numbers of activated, CD25-positive and HLA-DR-positive T-cells” value is recorded as “increased”. For the same compound, the “activation of Jurkat-ECs where PD-L1 is absent” value in data set [3] was “requires the presence of PD-L1”.
